Assay results taken from ChEMBL document CHEMBL3352216, “Triterpene glycosides from red ginseng marc and their anti-inflammatory activities” (Bioorg Med Chem Lett, 2014).
In brackets after ≈: the same amount, converted by molar mass. Blank lines part the entries; values can stand above or below the molecule they belong to. Activity calls are given as the source filed them. No cut-off for these calls is given here.

Assays:
[1] = Cytotoxicity against LPS-stimulated mouse RAW264.7 cells assessed as cell viability at 10 uM after 24 hrs by MTT assay (reference value: 100%); type: cell-based; conditions: LPS-stimulated RAW264.7 cells, read-out: Activity
[2] = Cytotoxicity against LPS-stimulated mouse RAW264.7 cells assessed as cell viability at 40 uM after 24 hrs by MTT assay (reference value: 100%); type: cell-based; conditions: LPS-stimulated RAW264.7 cells, read-out: Activity
RAW264.7 [3] = test: Antiinflammatory activity in LPS-stimulated mouse RAW264.7 cells assessed as reduction in iNOS expression at 20 uM co-incubated with LPS for 24 hrs by RT-PCR method relative to untreated control; type: functional
RAW264.7 [4] = test: Antiinflammatory activity in LPS-stimulated mouse RAW264.7 cells assessed as reduction in iNOS expression at 30 uM co-incubated with LPS for 24 hrs by RT-PCR method relative to untreated control; type: functional
RAW264.7 [5] = test: Antiinflammatory activity in LPS-stimulated mouse RAW264.7 cells assessed as reduction in IL6 expression at 30 uM co-incubated with LPS for 24 hrs by RT-PCR method relative to untreated control; type: functional
RAW264.7 [6] = test: Induction of iNOS mRNA expression in LPS-non-stimulated mouse RAW264.7 cells by RT-PCR method; type: cell-based
RAW264.7 [7] = test: Antiinflammatory activity in LPS-stimulated mouse RAW264.7 cells assessed as reduction in nitric oxide production after 24 hrs by Griess method based ELISA; type: functional, cell-based; conditions: RAW264.7, 24 h
RAW264.7 [8] = test: Antiinflammatory activity in LPS-stimulated mouse RAW264.7 cells assessed as reduction in TNFalpha expression at 30 uM co-incubated with LPS for 24 hrs by RT-PCR method relative to untreated control; type: functional
RAW264.7 [9] = test: Antiinflammatory activity in LPS-stimulated mouse RAW264.7 cells assessed as reduction in iNOS expression at 10 uM co-incubated with LPS for 24 hrs by RT-PCR method relative to untreated control; type: functional
RAW264.7 [10] = test: Antiinflammatory activity in LPS-stimulated mouse RAW264.7 cells assessed as reduction in COX2 expression at 30 uM co-incubated with LPS for 24 hrs by RT-PCR method relative to untreated control; type: functional
RAW264.7 [11] = test: Antiinflammatory activity in LPS-stimulated mouse RAW264.7 cells assessed as reduction in IL-1beta expression at 30 uM co-incubated with LPS for 24 hrs by RT-PCR method relative to untreated control; type: functional
RAW264.7 [12] = test: Antiinflammatory activity in LPS-stimulated mouse RAW264.7 cells assessed as reduction in nitric oxide production at 10 uM after 24 hrs by Griess method based ELISA (reference value: 52.4 +/- 0.9 uM); type: functional
[13] = Cytotoxicity against LPS-stimulated mouse RAW264.7 cells assessed as cell viability at 20 uM after 24 hrs by MTT assay (reference value: 100%); type: cell-based; conditions: LPS-stimulated RAW264.7 cells, read-out: Activity
RAW264.7 [14] = test: Antiinflammatory activity in LPS-stimulated mouse RAW264.7 cells assessed as reduction in nitric oxide production at 20 uM after 24 hrs by Griess method based ELISA (reference value: 52.4 +/- 0.9 uM); type: functional
RAW264.7 [15] = test: Antiinflammatory activity in LPS-stimulated mouse RAW264.7 cells assessed as reduction in COX2 expression at 10 uM co-incubated with LPS for 24 hrs by RT-PCR method relative to untreated control; type: functional
RAW264.7 [16] = test: Antiinflammatory activity in LPS-stimulated mouse RAW264.7 cells assessed as reduction in IL-1beta expression at 20 uM co-incubated with LPS for 24 hrs by RT-PCR method relative to untreated control; type: functional
RAW264.7 [17] = test: Antiinflammatory activity in LPS-stimulated mouse RAW264.7 cells assessed as reduction in IL6 expression at 20 uM co-incubated with LPS for 24 hrs by RT-PCR method relative to untreated control; type: functional
RAW264.7 [18] = test: Antiinflammatory activity in LPS-stimulated mouse RAW264.7 cells assessed as reduction in IL6 expression at 10 uM co-incubated with LPS for 24 hrs by RT-PCR method relative to untreated control; type: functional
RAW264.7 [19] = test: Antiinflammatory activity in LPS-stimulated mouse RAW264.7 cells assessed as reduction in IL-1beta expression at 10 uM co-incubated with LPS for 24 hrs by RT-PCR method relative to untreated control; type: functional
RAW264.7 [20] = test: Antiinflammatory activity in LPS-stimulated mouse RAW264.7 cells assessed as reduction in nitric oxide production at 40 uM after 24 hrs by Griess method based ELISA (reference value: 52.4 +/- 0.9 uM); type: functional
RAW264.7 [21] = test: Antiinflammatory activity in LPS-stimulated mouse RAW264.7 cells assessed as reduction in iNOS expression co-incubated with LPS for 24 hrs by RT-PCR method relative to untreated control; type: functional, cell-based
RAW264.7 [22] = test: Antiinflammatory activity in LPS-stimulated mouse RAW264.7 cells assessed as reduction in COX2 expression at 20 uM co-incubated with LPS for 24 hrs by RT-PCR method relative to untreated control; type: functional
RAW264.7 [23] = test: Antiinflammatory activity in LPS-stimulated mouse RAW264.7 cells assessed as reduction in TNFalpha level at 10 to 40 uM co-incubated with LPS for 24 hrs by ELISA method; type: functional, cell-based
RAW264.7 [24] = test: Antiinflammatory activity in LPS-stimulated mouse RAW264.7 cells assessed as reduction in TNFalpha expression at 10 uM co-incubated with LPS for 24 hrs by RT-PCR method relative to untreated control; type: functional
RAW264.7 [25] = test: Antiinflammatory activity in LPS-stimulated mouse RAW264.7 cells assessed as reduction in TNFalpha expression at 20 uM co-incubated with LPS for 24 hrs by RT-PCR method relative to untreated control; type: functional
RAW264.7 [26] = test: Antiinflammatory activity in LPS-stimulated mouse RAW264.7 cells assessed as reduction in nitric oxide production at 120 uM after 24 hrs by Griess method based ELISA (reference value: 52.4 +/- 0.9 uM); type: functional
RAW264.7 [27] = test: Antiinflammatory activity in LPS-stimulated mouse RAW264.7 cells assessed as reduction in TNFalpha expression at 80 uM co-incubated with LPS for 24 hrs by RT-PCR method relative to untreated control; type: functional
RAW264.7 [28] = test: Antiinflammatory activity in LPS-stimulated mouse RAW264.7 cells assessed as reduction in TNFalpha expression at 40 uM co-incubated with LPS for 24 hrs by RT-PCR method relative to untreated control; type: functional
[29] = Cytotoxicity against LPS-stimulated mouse RAW264.7 cells assessed as cell viability at 80 uM after 24 hrs by MTT assay (reference value: 100%); type: cell-based; conditions: LPS-stimulated RAW264.7 cells, read-out: Activity
RAW264.7 [30] = test: Antiinflammatory activity in LPS-stimulated mouse RAW264.7 cells assessed as reduction in COX2 expression at 80 uM co-incubated with LPS for 24 hrs by RT-PCR method relative to untreated control; type: functional
RAW264.7 [31] = test: Antiinflammatory activity in LPS-stimulated mouse RAW264.7 cells assessed as reduction in IL-1beta expression at 120 uM co-incubated with LPS for 24 hrs by RT-PCR method relative to untreated control; type: functional
RAW264.7 [32] = test: Antiinflammatory activity in LPS-stimulated mouse RAW264.7 cells assessed as reduction in IL6 expression at 120 uM co-incubated with LPS for 24 hrs by RT-PCR method relative to untreated control; type: functional
RAW264.7 [33] = test: Antiinflammatory activity in LPS-stimulated mouse RAW264.7 cells assessed as reduction in iNOS expression at 120 uM co-incubated with LPS for 24 hrs by RT-PCR method relative to untreated control; type: functional
RAW264.7 [34] = test: Antiinflammatory activity in LPS-stimulated mouse RAW264.7 cells assessed as reduction in TNFalpha expression at 120 uM co-incubated with LPS for 24 hrs by RT-PCR method relative to untreated control; type: functional
RAW264.7 [35] = test: Antiinflammatory activity in LPS-stimulated mouse RAW264.7 cells assessed as reduction in IL6 expression at 80 uM co-incubated with LPS for 24 hrs by RT-PCR method relative to untreated control; type: functional
RAW264.7 [36] = test: Antiinflammatory activity in LPS-stimulated mouse RAW264.7 cells assessed as reduction in iNOS expression at 80 uM co-incubated with LPS for 24 hrs by RT-PCR method relative to untreated control; type: functional
RAW264.7 [37] = test: Antiinflammatory activity in LPS-stimulated mouse RAW264.7 cells assessed as reduction in IL6 level at 40 uM co-incubated with LPS for 24 hrs by ELISA method; type: functional, cell-based
RAW264.7 [38] = test: Antiinflammatory activity in LPS-stimulated mouse RAW264.7 cells assessed as reduction in COX2 expression at 40 uM co-incubated with LPS for 24 hrs by RT-PCR method relative to untreated control; type: functional
RAW264.7 [39] = test: Antiinflammatory activity in LPS-stimulated mouse RAW264.7 cells assessed as reduction in IL6 expression at 40 uM co-incubated with LPS for 24 hrs by RT-PCR method relative to untreated control; type: functional
[40] = Cytotoxicity against LPS-stimulated mouse RAW264.7 cells assessed as cell viability at 120 uM after 24 hrs by MTT assay (reference value: 100%); type: cell-based; conditions: LPS-stimulated RAW264.7 cells, read-out: Activity
RAW264.7 [41] = test: Antiinflammatory activity in LPS-stimulated mouse RAW264.7 cells assessed as reduction in iNOS expression at 40 uM co-incubated with LPS for 24 hrs by RT-PCR method relative to untreated control; type: functional
RAW264.7 [42] = test: Antiinflammatory activity in LPS-stimulated mouse RAW264.7 cells assessed as reduction in nitric oxide production at 80 uM after 24 hrs by Griess method based ELISA (reference value: 52.4 +/- 0.9 uM); type: functional
RAW264.7 [43] = test: Antiinflammatory activity in LPS-stimulated mouse RAW264.7 cells assessed as reduction in IL-1beta expression at 80 uM co-incubated with LPS for 24 hrs by RT-PCR method relative to untreated control; type: functional
RAW264.7 [44] = test: Antiinflammatory activity in LPS-stimulated mouse RAW264.7 cells assessed as reduction in COX2 expression at 120 uM co-incubated with LPS for 24 hrs by RT-PCR method relative to untreated control; type: functional
RAW264.7 [45] = test: Antiinflammatory activity in LPS-stimulated mouse RAW264.7 cells assessed as reduction in IL-1beta expression at 40 uM co-incubated with LPS for 24 hrs by RT-PCR method relative to untreated control; type: functional

IC50 (RAW264.7 [7]): 25.9 µg/mL (≈ 23.7 µM)
SMILES: C[C@@H]1[C@H]2[C@H]3C[C@H](O)[C@@H]4[C@@]5(C)CC[C@H](O[C@H]6O[C@H](CO[C@H]7O[C@H](CO[C@H]8O[C@H](CO[C@H]9O[C@H](CO)[C@@H](O)[C@H](O)[C@H]9O)[C@@H](O)[C@H](O)[C@H]8O)[C@@H](O)[C@H](O)[C@H]7O)[C@@H](O)[C@H](O)[C@H]6O)C(C)(C)[C@@H]5CC[C@@]4(C)[C@]3(C)CC[C@@]2(C)CC[C@H]1C
viability at 24 h, 10 µM [1]: 111%
viability at 24 h, 40 µM [2]: 98.7%
fold change (FC) (RAW264.7 [3]): 0.7
fold change (FC) (RAW264.7 [4]): 0.4
fold change (FC) (RAW264.7 [5]): 0.7
Activity (RAW264.7 [6]): Non-toxic
fold change (FC) (RAW264.7 [8]): 0.6
fold change (FC) (RAW264.7 [9]): 0.7
fold change (FC) (RAW264.7 [10]): 0.5
fold change (FC) (RAW264.7 [11]): 0.6
Activity (RAW264.7 [12]): 46.4 µM
viability at 24 h, 20 µM [13]: 126%
Activity (RAW264.7 [14]): 39.8 µM
fold change (FC) (RAW264.7 [15]): 0.5
fold change (FC) (RAW264.7 [16]): 0.7
fold change (FC) (RAW264.7 [17]): 0.6
fold change (FC) (RAW264.7 [18]): 0.5
fold change (FC) (RAW264.7 [19]): 0.7
Activity (RAW264.7 [20]): 7.1 µM
inhibition (RAW264.7 [21]): Dose-dependent effect
fold change (FC) (RAW264.7 [22]): 0.6
inhibition (RAW264.7 [23]): Active
fold change (FC) (RAW264.7 [24]): 0.6
fold change (FC) (RAW264.7 [25]): 0.7

IC50 (RAW264.7 [7]): 86.7 µg/mL (≈ 94.9 µM)
SMILES: CC(C)=CCC[C@@H](C)[C@H]1CC[C@@]2(C)[C@@H]3CC=C4C(C)(C)[C@@H](O[C@@H]5O[C@H](CO[C@@H]6O[C@H](CO[C@@H]7O[C@H](CO)[C@@H](O)[C@H](O)[C@H]7O)[C@@H](O)[C@H](O)[C@H]6O)[C@@H](O)[C@H](O)[C@H]5O)CC[C@]4(C)[C@H]3CC[C@]12C
Activity (RAW264.7 [26]): 19.8 µM
fold change (FC) (RAW264.7 [27]): 1
fold change (FC) (RAW264.7 [28]): 0.9
viability at 24 h, 80 µM [29]: 145%
viability at 24 h, 40 µM [2]: 121%
fold change (FC) (RAW264.7 [30]): 0.8
fold change (FC) (RAW264.7 [31]): 0.5
Activity (RAW264.7 [6]): Non-toxic
fold change (FC) (RAW264.7 [32]): 0.6
fold change (FC) (RAW264.7 [33]): 0.6
fold change (FC) (RAW264.7 [34]): 0.5
fold change (FC) (RAW264.7 [35]): 1
fold change (FC) (RAW264.7 [36]): 1.1
inhibition (RAW264.7 [37]): Active
fold change (FC) (RAW264.7 [38]): 0.7
fold change (FC) (RAW264.7 [39]): 0.9
viability at 24 h, 120 µM [40]: 155%
fold change (FC) (RAW264.7 [41]): 1
Activity (RAW264.7 [42]): 27.5 µM
fold change (FC) (RAW264.7 [43]): 1.1
Activity (RAW264.7 [20]): 40.9 µM
inhibition (RAW264.7 [21]): Dose-dependent effect
fold change (FC) (RAW264.7 [44]): 0.4
fold change (FC) (RAW264.7 [45]): 1
